According to patent US8143393B2, “Substituted 4-amino-pyrrolotriazine derivatives useful for treating hyper-proliferative disorders and diseases associated with angiogenesis” (Bayer HealthCare LLC, priority 2005, dated 2012):

biological target: T1, FGFR-1 (Homo sapiens, UniProt P11362); assay: FGFR-1 TR-FRET biochemical assay; conditions: 0.6 uM ATP, 5 nM FGFR1-GST; bounds given in nM
T1 construct: GST; made in house
Procedure: FGFR-1TR-FRET Biochemical Assay
The FGFR-1 Assay was performed on half well 96-well opaque plates (Costar 3915) in a LANCE format. LANCE is a homogenous time resolved fluormetry based application available through Perkin Elmer. For this assay, 50 uL reactions were set up using: 0.6 uM ATP (Sigma), 25 nM poly GT-biotin (CIS BIO International), 2 nM Eu-labelled phospho-Tyr Ab (PY20 PerkinElmer), 10 nM Streptavidin-APC (Perkin Elmer), 5 nM FGFR1-GST (generated by DRT, Bayer Healthcare), 1% DMSO, 50 mM HEPES pH 7.5, 10 mM MgCl2, 0.1 mM EDTA, 0.015% Brij, 0.1 mg/ml BSA, 0.1% B-mercaptoethanol. All reactions were initiated with the addition of enzyme and were left to incubate for one hour at room temperature. Time-resolved fluorescence was then read on a Perkin Elmer VictorV Multilabel counter. The reading protocol uses an excitation wavelength at 340 nm and emission reads at both 615 and 665 nm. Signal was calculated as a ratio: (Flourescence at 665 nm/Flourescence at 615 nM)*10000 for each well. The background control used for this assay is the signal produced with all assay components excluding ATP. For IC50 generation, compounds were added prior to the enzyme initiation. A 50-fold stock plate was made with compounds serially diluted 1:5 in a 50% DMSO/50% dH2O solution. A 1 μL addition of the stock to the assay wells gave final compound concentrations ranging from 10 μM-0.128 nM in 1% DMSO. The data were expressed as percent inhibition: % inhibition=100−((Signal with inhibitor−background)/(Signal without inhibitor−background))*100.

T1 sequence (P11362 22-822): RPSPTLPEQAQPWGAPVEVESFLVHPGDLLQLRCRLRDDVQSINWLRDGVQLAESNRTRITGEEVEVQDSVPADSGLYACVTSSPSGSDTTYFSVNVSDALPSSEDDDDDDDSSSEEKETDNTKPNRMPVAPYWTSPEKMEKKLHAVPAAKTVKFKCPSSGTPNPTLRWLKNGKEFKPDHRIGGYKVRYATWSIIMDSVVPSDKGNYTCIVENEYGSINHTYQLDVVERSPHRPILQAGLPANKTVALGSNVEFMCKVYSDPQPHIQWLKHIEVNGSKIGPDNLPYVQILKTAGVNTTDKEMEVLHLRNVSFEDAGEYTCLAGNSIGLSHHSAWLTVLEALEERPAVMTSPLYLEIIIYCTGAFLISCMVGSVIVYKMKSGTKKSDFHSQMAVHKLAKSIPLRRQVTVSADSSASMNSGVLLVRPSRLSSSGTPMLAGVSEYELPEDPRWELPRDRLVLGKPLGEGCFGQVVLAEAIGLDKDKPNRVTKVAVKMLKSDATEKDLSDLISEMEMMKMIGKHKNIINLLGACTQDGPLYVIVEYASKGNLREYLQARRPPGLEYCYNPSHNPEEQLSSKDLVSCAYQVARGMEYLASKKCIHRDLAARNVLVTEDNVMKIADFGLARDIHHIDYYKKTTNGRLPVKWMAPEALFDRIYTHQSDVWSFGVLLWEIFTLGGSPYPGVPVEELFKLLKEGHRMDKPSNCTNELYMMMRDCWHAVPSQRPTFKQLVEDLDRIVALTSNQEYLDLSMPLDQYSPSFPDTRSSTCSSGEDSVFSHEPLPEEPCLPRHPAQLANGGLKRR

| Compound | IC50 [nM] |
| --- | --- |
| Nc1ncnn2c(CN3CCOCC3)cc(-c3ccc(NC(=O)Nc4cccc(Cl)c4)c(F)c3)c12 [Example 66, N-4-[4-amino-7-(morpholin-4-ylmethyl)pyrrolo[2,1-f][1,2,4]triazin-5-yl]-2-fluorophenyl-N′-(3-chlorophenyl)urea] | 10 to 100 |
| Cc1cccc(NC(=O)Nc2ccc(-c3cc(CN4CCOCC4)n4ncnc(N)c34)cc2)n1 [Example 57, N-{4-[4-amino-7-(morpholin-4-ylmethyl)pyrrolo[2,1-f][1,2,4]-triazin-5-yl]phenyl}-N′-(6-methylpyridin-2-yl)urea] | > 100 |
| Nc1ncnn2c(C3CCN(C(=O)C(F)(F)F)CC3)cc(-c3ccc(NC(=O)Nc4cc(C(F)(F)F)ccc4F)c(F)c3)c12 [Example 112, N-(4-4-amino-7-[1-(trifluoroacetyl)piperidin-4-yl]pyrrolo[2,1-f][1,2,4]triazin-5-yl-2-fluorophenyl)-N′-[2-fluoro-5-(trifluoromethyl)-phenyl]urea] | > 100 |
| CC(C)S(=O)(=O)N1CCN(Cc2cc(-c3ccc(NC(=O)Nc4cc(C(F)(F)F)ccc4F)cc3)c3c(N)ncnn23)CC1 [Example 85, N-[4-(4-amino-7-{[4(isopropylsulfonyl)piperazin-1-yl]methyl}pyrrolo[2,1-f][1,2,4]triazin-5-yl)phenyl]-N′-[2-fluoro-5-(trifluoromethyl)phenyl]urea] | 10 to 100 |
| Cc1ccc(F)c(NC(=O)Nc2cc(F)c(-c3cc(CN4CCOCC4)n4ncnc(N)c34)cc2F)c1 [Example 145, N-{4-[4-amino-7-(morpholin-4-ylmethyl)pyrrolo[2,1-f][1,2,4]triazin-5-yl]-2,5-difluorophenyl}-N′-(2-fluoro-5-methylphenyl)urea] | 10 to 100 |
| COc1cc(-c2cc(CN3CCOCC3)n3ncnc(N)c23)ccc1NC(=O)Nc1cc(C(F)(F)F)ccc1F [Example 36, N-{4-[4-amino-7-(morpholin-4-ylmethyl)pyrrolo[2,1-f][1,2,4]triazin-5-yl]-2-methoxyphenyl}-N′-[2-fluoro-5-(trifluoromethyl)phenyl]urea] | 10 to 100 |
| Nc1ncnn2c(-c3cnco3)cc(-c3ccc(NC(=O)Nc4cc(C(F)(F)F)ccn4)c(F)c3)c12 [Example 273, N-{4-[4-amino-7-(1,3-oxazol-5-yl)pyrrolo[2,1-f][1,2,4]triazin-5-yl]-2fluorophenyl}-N′-[4-(trifluoromethyl)pyridin-2-yl]urea] | 10 to 100 |
| Nc1ncnn2c(C3CCN(CC(O)CO)CC3)cc(-c3ccc(NC(=O)Nc4cc(C(F)(F)F)ccc4F)c(F)c3)c12 (stereo not drawn) [Example 121, N-(4-4-amino-7-[1-(2,3-dihydroxypropyl)piperidin-4-yl]pyrrolo[2,1-f][1,2,4]triazin-5-yl-2-fluorophenyl)-N′-[2-fluoro-5-(trifluoromethyl)-phenyl]urea] | < 10 |
| Nc1ncnn2c(C3CCN(C(=O)CO)CC3)cc(-c3ccc(NC(=O)Nc4cc(C(F)(F)F)ccc4F)c(Cl)c3)c12 [Example 173, N-{4-[4-amino-7-(1-glycoloylpiperidin-4-yl)pyrrolo[2,1-f][1,2,4]triazin-5-yl]-2-chlorophenyl}-N′-[2-fluoro-5-(trifluoromethyl)phenyl]urea] | < 10 |
| Nc1ncnn2c(CC3CNCCO3)cc(-c3ccc(NC(=O)Nc4cc(C(F)(F)F)ccc4F)c(F)c3)c12 (stereo not drawn) [Example 276, N-{4-[4-amino-7-(morpholin-2-ylmethyl)pyrrolo[2,1-f][1,2,4]triazin-5-yl]-2-fluorophenyl}-N′-[2-fluoro-5-(trifluoromethyl)phenyl]urea] | 10 to 100 |
| CC(=O)N1CCC(c2cc(-c3ccc(NC(=O)Nc4cc(C(F)(F)F)ccn4)c(F)c3)c3c(N)ncnn23)CC1 [Example 237, N-{4-[7-(1-acetylpiperidin-4-yl)-4-aminopyrrolo[2,1-f][1,2,4]triazin-5-yl]-2-fluorophenyl}-N′-[4-(trifluoromethyl)pyridin-2-yl]urea] | < 10 |
| Nc1ncnn2c(CN3CCCOCC3)cc(-c3cc(F)c(NC(=O)Nc4cc(C(F)(F)F)ccc4F)cc3F)c12 [Example 168, N-{4-[4-amino-7-(1,4-oxazepan-4-ylmethyl)pyrrolo[2,1-f][1,2,4]triazin-5-yl]-2,5-difluorophenyl}-N′-[2-fluoro-5-(trifluoromethyl)phenyl]urea] | < 10 |
| Nc1ncnn2c(CN3CCS(=O)(=O)CC3)cc(-c3ccc(NC(=O)Nc4cc(C(F)(F)F)ccc4F)c(F)c3)c12 [Example 79, N-(4-{4-amino-7-[(1,1-dioxidothiomorpholin-4-yl)methyl]pyrrolo[2,1-f][1,2,4]triazin-5-yl}-2-fluorophenyl)-N′-[2-fluoro-5-(trifluoromethyl)phenyl]urea] | < 10 |
| Nc1ncnn2c(CN3CCN(S(=O)(=O)CC(F)(F)F)CC3)cc(-c3ccc(NC(=O)Nc4cc(C(F)(F)F)ccc4F)cc3)c12 [Example 86, N-{4-[4-amino-7-({4-[(2,2,2-trifluoroethyl)sulfonyl]piperazin-1-yl}methyl)pyrrolo[2,1-f][1,2,4]triazin-5-yl]phenyl}-N′-[2-fluoro-5-(trifluoromethyl)phenyl]urea] | 10 to 100 |
| Nc1ncnn2c(CN3CCOCC3)cc(-c3ccc(NC(=O)Nc4cccc(Br)c4)c(F)c3)c12 [Example 67, N-4-[4-amino-7-(morpholin-4-ylmethyl)pyrrolo[2,1-f][1,2,4]triazin-5-yl]-2-fluorophenyl-N′-(3-bromophenyl)urea] | < 10 |

Second part, the compound after the results:

| IC50 [nM] | Compound |
| --- | --- |
| < 10 | Nc1ncnn2c(CN3CCOCC3)cc(-c3ccc(NC(=O)Nc4cc(C(F)(F)F)ccn4)cc3F)c12 [Example 11, N-{4-[4-amino-7-(morpholin-4-ylmethyl)pyrrolo[2,1-f][1,2,4]triazin-5-yl]-3-fluorophenyl}-N′-[4-(trifluoromethyl)pyridin-2-yl]urea] |
| < 10 | Nc1ncnn2c(CCCN3CCS(=O)(=O)CC3)cc(-c3ccc(NC(=O)Nc4cc(C(F)(F)F)ccc4F)c(F)c3)c12 [Example 189, N-(4-{4-amino-7-[3-(1,1-dioxidothiomorpholin-4-yl)propyl]pyrrolo[2,1-f][1,2,4]triazin-5-yl}-2-fluorophenyl)-N′-[2-fluoro-5-(trifluoromethyl)phenyl]urea] |
| < 10 | Nc1ncnn2c(CCCN3CCNC(=O)C3)cc(-c3ccc(NC(=O)Nc4cc(C(F)(F)F)ccc4F)c(F)c3)c12 [Example 195, N-(4-{4-amino-7-[3-(3-oxopiperazin-1-yl)propyl]pyrrolo[2,1-f][1,2,4]triazin-5-yl}-2-fluorophenyl)-N′-[2-fluoro-5-(trifluoromethyl)phenyl]urea] |
| < 10 | Nc1ncnn2c(CN3CCCOCC3)cc(-c3ccc(NC(=O)Nc4cc(C(F)(F)F)ccn4)cc3)c12 [Example 176, N-{4-[4-amino-7-(1,4-oxazepan-4-ylmethyl)pyrrolo[2,1-f][1,2,4]triazin-5-yl]phenyl}-N′-[4-(trifluoromethyl)pyridin-2-yl]urea] |
| < 10 | Nc1ncnn2c(CCCCN3CCOCC3)cc(-c3ccc(NC(=O)Nc4cc(C(F)(F)F)ccc4F)c(F)c3)c12 [Example 224, N-{4-[4-amino-7-(4-morpholin-4-ylbutyl)pyrrolo[2,1-f][1,2,4]triazin-5-yl]-2-fluorophenyl}-N′-[2-fluoro-5-(trifluoromethyl)phenyl]urea] |
| < 10 | CN1CCC(c2cc(-c3ccc(NC(=O)Nc4cc(C(F)(F)F)ccc4F)c(F)c3)c3c(N)ncnn23)CC1 [Example 113, N-4-[4-amino-7-(1-methylpiperidin-4-yl)pyrrolo[2,1-f][1,2,4]triazin-5-yl]-2-fluorophenyl-N′-[2-fluoro-5-(trifluoromethyl)phenyl]urea] |
| < 10 | Nc1ncnn2c(CN3CCOCC3)cc(-c3ccc(NC(=O)Nc4cc(C(F)(F)F)ccc4F)c(Cl)c3)c12 [Example 128, N-4-[4-amino-7-(morpholin-4-ylmethyl)pyrrolo[2,1-f][1,2,4]triazin-5-yl]-2-chlorophenyl-N′-[2-fluoro-5-(trifluoromethyl)phenyl]urea] |
| < 10 | Nc1ncnn2c(CN3CCOCC3)cc(-c3ccc(NC(=O)Nc4cc(C(F)(F)F)ccc4Cl)c(F)c3)c12 [Example 65, N-4-[4-amino-7-(morpholin-4-ylmethyl)pyrrolo[2,1-f][1,2,4]triazin-5-yl]-2-fluorophenyl-N′-[2-chloro-5-(trifluoromethyl)phenyl]urea] |
| < 10 | CC(=O)N1CCN(CCCc2cc(-c3ccc(NC(=O)Nc4cc(C(F)(F)F)ccc4F)c(F)c3)c3c(N)ncnn23)CC1 [Example 188, N-(4-{7-[3-(4-acetylpiperazin-1-yl)propyl]-4-aminopyrrolo[2,1-f][1,2,4]triazin-5-yl}-2-fluorophenyl)-N′-[2-fluoro-5-(trifluoromethyl)phenyl]urea] |
| < 10 | Cc1cc(-c2cc(CN3CCNC(=O)C3)n3ncnc(N)c23)ccc1NC(=O)Nc1cc(C(F)(F)F)ccc1F [Example 165, N-(4-{4-amino-7-[(3-oxopiperazin-1-yl)methyl]-pyrrolo[2,1-f][1,2,4]triazin-5-yl}-2-methylphenyl)-N′-[2-fluoro-5-(trifluoromethyl)-phenyl]urea] |

same assay, conditions: upper bound of the bin 'greater than 100 nM but less than 1 μM' (lower bound in E1)

| IC50 [nM] | Compound |
| --- | --- |
| < 1000 | Cc1cccc(NC(=O)Nc2ccc(-c3cc(CN4CCOCC4)n4ncnc(N)c34)cc2)n1 [Example 57, N-{4-[4-amino-7-(morpholin-4-ylmethyl)pyrrolo[2,1-f][1,2,4]-triazin-5-yl]phenyl}-N′-(6-methylpyridin-2-yl)urea] |
| < 1000 | Nc1ncnn2c(C3CCN(C(=O)C(F)(F)F)CC3)cc(-c3ccc(NC(=O)Nc4cc(C(F)(F)F)ccc4F)c(F)c3)c12 [Example 112, N-(4-4-amino-7-[1-(trifluoroacetyl)piperidin-4-yl]pyrrolo[2,1-f][1,2,4]triazin-5-yl-2-fluorophenyl)-N′-[2-fluoro-5-(trifluoromethyl)-phenyl]urea] |
